Measured values published in patent US6906097B2, “8-azaprostaglandin analogs as agents for lowering intraocular pressure” (Allergan, Inc., priority 2002, dated 2005).

How the values were obtained:
Assay type in all cases: cell-based
[1] = target: T1, hEP1 (Homo sapiens, UniProt P34995); assay: Functional data, human recombinant EP1 receptor stable transfectants
T1 construct: expressed in transfected cells
T1 sequence (P34995 1-402): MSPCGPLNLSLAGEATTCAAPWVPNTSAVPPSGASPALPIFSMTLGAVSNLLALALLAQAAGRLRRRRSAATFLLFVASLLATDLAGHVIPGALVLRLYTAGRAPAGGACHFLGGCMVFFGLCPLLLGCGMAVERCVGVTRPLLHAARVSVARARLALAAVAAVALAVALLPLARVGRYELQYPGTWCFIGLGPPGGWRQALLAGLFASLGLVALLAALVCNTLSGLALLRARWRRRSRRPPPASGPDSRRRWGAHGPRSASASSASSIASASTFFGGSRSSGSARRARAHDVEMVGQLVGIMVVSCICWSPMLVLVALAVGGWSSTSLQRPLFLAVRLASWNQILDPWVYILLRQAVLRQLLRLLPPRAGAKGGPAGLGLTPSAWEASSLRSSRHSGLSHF
Experimental: (§1) Human Recombinant EP1, EP2, EP3, EP4, FP, TP, IP and DP Receptors: Stable Transfectants
(§2) Plasmids encoding the human EP1, EP2, EP3, EP4, FP, TP, IP and DP receptors were prepared by cloning the respective coding sequences into the eukaryotic expression vector pCEP4 (Invitrogen). The pCEP4 vector contains an Epstein Barr virus (EBV) origin of replication, which permits episomal replication in primate cell lines expressing EBV nuclear antigen (EBNA-1). It also contains a hygromycin resistance gene that is used for eukaryotic selection. The cells employed for stable transfection were human embryonic kidney cells (HEK-293) that were transfected with and express the EBNA-1 protein. These HEK-293-EBNA cells (Invitrogen) were grown in medium containing Geneticin (G418) to maintain expression of the EBNA-1 protein. HEK-293 cells were grown in DMEM with 10% fetal bovine serum (FBS), 250 μg ml^−1 G418 (Life Technologies) and 200 μg ml^−1 gentamicin or penicillin/streptomycin.
(§3) For transfection, the cells were grown to 50-60% confluency on 10 cm plates. The plasmid pCEP4 incorporating cDNA inserts for the respective human prostanoid receptor (20 μg) was added to 500 μl of 250 mM CaCl2. HEPES buffered saline×2 (2×HBS, 280 mM NaCl, 20 mM HEPES acid, 1.5 mM Na2 HPO4, pH 7.05-7.12) was then added dropwise to a total of 500 μl, with continuous vortexing at room temperature. After 30 min, 9 ml DMEM were added to the mixture. The DNA/DMEM/calcium phosphate mixture was then added to the cells, which had been previously rinsed with 10 ml PBS. The cells were then incubated for 5 hr at 37° C. in humidified 95% air/5% CO2. The calcium phosphate solution was then removed and the cells were treated with 10% glycerol in DMEM for 2 min. The glycerol solution was then replaced by DMEM with 10% FBS. The cells were incubated overnight and the medium was replaced by DMEM/10% FBS containing 250 μg ml^−1 G418 and penicillin/streptomycin. The following day hygromycin B was added to a final concentration of 200 μg ml^−1.
(§4) Ten days after transfection, hygromycin B resistant clones were individually selected and transferred to a separate well on a 24 well plate. At confluence each clone was transferred to one well of a 6 well plate, and then expanded in a 10 cm dish. Cells were maintained under continuous hygromycin selection until use.

[2] = target: T2, hEP3A (Homo sapiens, UniProt P43115); assay: Functional data, human recombinant EP3A receptor stable transfectants
T2 construct: expressed in transfected cells
T2 sequence (P43115 1-390): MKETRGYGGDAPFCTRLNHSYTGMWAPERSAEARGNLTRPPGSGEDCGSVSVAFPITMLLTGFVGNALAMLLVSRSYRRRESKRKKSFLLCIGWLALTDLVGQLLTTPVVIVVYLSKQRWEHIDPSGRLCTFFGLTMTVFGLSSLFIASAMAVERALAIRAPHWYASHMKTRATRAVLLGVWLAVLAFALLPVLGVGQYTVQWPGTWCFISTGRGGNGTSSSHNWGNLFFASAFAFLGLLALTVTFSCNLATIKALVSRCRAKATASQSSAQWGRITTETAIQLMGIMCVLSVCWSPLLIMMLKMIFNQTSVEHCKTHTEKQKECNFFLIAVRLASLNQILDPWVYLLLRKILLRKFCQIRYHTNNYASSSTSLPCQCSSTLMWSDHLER
Experimental: as §1
as §2, with “The cells employed for stable transfection were human embryonic kidney cells (HEK-293) that were transfected with and express the EBNA-1 protein. These HEK-293-EBNA cells (Invitrogen) were grown in medium containing Geneticin (G418) to maintain expression of the EBNA-1 protein.” left out
as §3, with “HEPES buffered saline×2 (2×HBS, 280 mM NaCl, 20 mM HEPES acid, 1.5 mM Na2 HPO4, pH 7.05-7.12) was then added dropwise to a total of 500 μl, with continuous vortexing at room temperature.” left out
as §4

[3] = target: T3, hEP4 (Homo sapiens, UniProt P35408); assay: Functional data, human recombinant EP4 receptor stable transfectants
T3 construct: expressed in transfected cells
Experimental: as §1
as §2, with “The cells employed for stable transfection were human embryonic kidney cells (HEK-293) that were transfected with and express the EBNA-1 protein. These HEK-293-EBNA cells (Invitrogen) were grown in medium containing Geneticin (G418) to maintain expression of the EBNA-1 protein.” left out
as §3, with “HEPES buffered saline×2 (2×HBS, 280 mM NaCl, 20 mM HEPES acid, 1.5 mM Na2 HPO4, pH 7.05-7.12) was then added dropwise to a total of 500 μl, with continuous vortexing at room temperature.” left out
as §4

T3 sequence (P35408 whole entry): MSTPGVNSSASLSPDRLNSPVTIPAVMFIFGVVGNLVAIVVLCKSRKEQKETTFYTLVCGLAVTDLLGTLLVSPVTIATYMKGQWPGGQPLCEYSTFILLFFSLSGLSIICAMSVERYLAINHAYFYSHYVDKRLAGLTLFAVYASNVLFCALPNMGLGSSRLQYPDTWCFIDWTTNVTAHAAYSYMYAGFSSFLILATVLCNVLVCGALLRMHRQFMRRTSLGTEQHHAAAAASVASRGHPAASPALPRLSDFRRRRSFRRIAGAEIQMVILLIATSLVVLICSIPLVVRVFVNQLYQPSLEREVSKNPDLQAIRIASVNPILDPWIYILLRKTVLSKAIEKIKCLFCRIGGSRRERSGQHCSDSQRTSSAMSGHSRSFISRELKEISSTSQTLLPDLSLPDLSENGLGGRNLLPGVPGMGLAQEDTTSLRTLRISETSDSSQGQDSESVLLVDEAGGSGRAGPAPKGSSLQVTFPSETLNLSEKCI

EC50 [1]: > 10000 nM
EC50 [2]: 608 nM
EC50 [3]: 0.7 nM
Structure (SMILES): O=C(O)CCCCCCN1C(=O)CC[C@@H]1CCC(O)Cc1cccc(Cl)c1 (stereo partly drawn) [Example 1, 7-[2S-[3R-Hydroxy-4-(chloro-phenyl)-butyl]-5-oxo-pyrrolidin-1-yl]-heptanoic acid]
